These results are taken from US8188064B2, “Vitamin D analogs for obesity prevention and treatment” (Wisconsin Alumni Research Foundation, priority 2003, dated 2012).

“Also recorded” adds a separate entry of the source.

Data set [1] addresses T1, full-length recombinant rat vitamin D receptor (Rattus norvegicus, UniProt P13053).
T1 construct: Full-length recombinant rat receptor was expressed in E. coli; histidine tag (C); made in house; host or cells: E. coli BL21(DE3) Codon Plus RIL
T1 sequence (P13053 1-423): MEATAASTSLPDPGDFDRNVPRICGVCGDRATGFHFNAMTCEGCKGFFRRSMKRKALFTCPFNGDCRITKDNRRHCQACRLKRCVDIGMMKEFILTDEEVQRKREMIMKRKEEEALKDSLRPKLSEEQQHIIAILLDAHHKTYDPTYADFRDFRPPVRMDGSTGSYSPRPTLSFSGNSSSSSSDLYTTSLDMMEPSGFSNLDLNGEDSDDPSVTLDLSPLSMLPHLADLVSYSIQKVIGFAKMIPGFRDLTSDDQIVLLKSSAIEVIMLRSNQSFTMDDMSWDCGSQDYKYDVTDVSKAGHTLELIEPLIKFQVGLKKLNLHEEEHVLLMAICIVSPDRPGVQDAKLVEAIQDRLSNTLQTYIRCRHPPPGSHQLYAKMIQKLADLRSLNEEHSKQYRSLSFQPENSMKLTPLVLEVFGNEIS
Nature of the data set: Vitamin D receptor binding (competition with 3H-1,25(OH)2D3). The settings on record: for binding to the vitamin D receptor, compared to 1α,25(OH)2D3: result in words, competition for tritiated hormone binding. How it is done: Full-length recombinant rat receptor was expressed in E. coli BL21(DE3) Codon Plus RIL cells and purified to homogeneity using two different column chromatography systems. The first system was a nickel affinity resin that utilizes the C-terminal histidine tag on this protein. The protein that was eluted from this resin was further purified using ion exchange chromatography (S-Sepharose Fast Flow). Aliquots of the purified protein were quick frozen in liquid nitrogen and stored at −80° C. until use. For use in binding assays, the protein was diluted in TEDK50 (50 mM Tris, 1.5 mM EDTA, pH 7.4, 5 mM DTT, 150 mM KCl) with 0.1% Chaps detergent. The receptor protein and ligand concentration was optimized such that no more than 20% of the added radiolabeled ligand was bound to the receptor.
Unlabeled ligands were dissolved in ethanol and the concentrations determined using UV spectrophotometry (1,25(OH)2D3: molar extinction coefficient=18,200 and λmax=265 nm; Analogs: molar extinction coefficient=42,000 and λmax=252 nm). Radiolabeled ligand (^3H-1,25(OH)2D3, ˜159 Ci/mmole) was added in ethanol at a final concentration of 1 nM.
Radiolabeled and unlabeled ligands were added to 100 mcl of the diluted protein at a final ethanol concentration of ≦10%, mixed and incubated overnight on ice to reach binding equilibrium. The following day, 100 mcl of hydroxylapatite slurry (50%) was added to each tube and mixed at 10-minute intervals for 30 minutes. The hydroxylapaptite was collected by centrifugation and then washed three times with Tris-EDTA buffer (50 mM Tris, 1.5 mM EDTA, pH 7.4) containing 0.5% Titron X-100. After the final wash, the pellets were transferred to scintillation vials containing 4 ml of Biosafe II scintillation cocktail, mixed and placed in a scintillation counter. Total binding was determined from the tubes containing only radiolabeled ligand.

Data set [2] can be described thus: Intestinal calcium transport (everted gut sac). The settings on record: result in words, vitamin D deficient rat model, compared to 1α,25(OH)2D3. Type of data set: in vivo. How it is done: (§1) Male, weanling Sprague-Dawley rats were placed on Diet 11 (0.47% Ca) diet+AEK for one week followed by Diet 11 (0.02% Ca)+AEK for 3 weeks. The rats were then switched to a diet containing 0.47% Ca for one week followed by two weeks on a diet containing 0.02% Ca. Dose administration began during the last week on 0.02% calcium diet. Four consecutive ip doses were given approximately 24 hours apart. Twenty-four hours after the last dose, blood was collected from the severed neck and the concentration of serum calcium determined as a measure of bone calcium mobilization. The first 10 cm of the intestine was also collected for intestinal calcium transport analysis using the everted gut sac method.

A short description of data set [3]: Bone calcium mobilization (serum calcium on low calcium diet). To be noted: for bone calcium mobilization activity: result in words, vitamin D deficient rat model, compared to 1α,25(OH)2D3. Format: in vivo, rat. How it is done:
as §1

The nature of data set [4]: Hypercalcemia / serum calcium analysis. Type of data set: in vivo, rat.
The next data set has as its system 3T3-L1 cells. Briefly: Inhibition of 3T3-L1 differentiation into mature adipocytes (Oil-Red-O staining). To be noted: for inhibition of differentiation of 3T3-L1 cells into mature adipocytes (Oil-Red-O staining): result in words, MDI-treated cells, staining at day 10; for inhibition of differentiation of MDI-treated 3T3-L1 cells (oil-red-O staining): tested at 1×10^−8.5 M. Format: cell-based, murine. As to the method:
Various 19-nor vitamin D analogs were or are tested and found to inhibit the differentiation of preadipocytes into mature adipocytes, to reduce body fat, to inhibit an increase in PPARγ, C/EBPα, and/or SCD-1 gene transcription and to be useful in treating and preventing obesity both in vivo and in vitro. The undifferentiated preadipocyte 3T3-L1 subline, a derivative of the original mouse fibroblast cell line, is one of the most accepted models for investigating the adipogenesis process and was used for the analysis. Two days after reaching confluence, 3T3-L1 cells can be induced to differentiate into adipocytes (see Mackall, J. C. et al. J. Biol. Chem., 251(20), 6462-6464 (1976)) with the addition of a cAMP phosphodiesterase inhibitor, dexamethasone (a glucocortoid), and insulin. […] The induction of PPARγ and C/EBPα is required for adipocyte differentiation. […] SCD-1 is an enzyme found in adipocytes that converts saturated fatty acids (C16 and C18) to their monounsaturated forms (C16:1 and C18:1). The deposition of triglyceride can also be detected as early as 3 days, and by the 7th to 14th days post-confluence, greater than 80% of the cells in the monolayer stain positively with Oil-red-O.

For a further data set, the system named is SCD-1 mRNA. Nature of the data set: Inhibition of SCD-1 mRNA induction in 3T3-L1 cells (RT-PCR). Type of data set: cell-based, murine. To be noted: for inhibition of SCD-1 mRNA induction: result in words, MDI-treated 3T3-L1 cells; for inhibition of SCD1 mRNA induction: tested at 1×10^−8.5 M. From the text:
Chomczynski, P. et al., Anal. […] NO: 4)).

Data set [5] relates to Human promyelocytic leukemia (HL60) cells. Briefly: HL-60 differentiation (nitro blue tetrazolium reduction). Format: cell-based. How it is done:
The study drugs were dissolved in ethanol and the concentrations determined using UV spectrophotometry. Serial dilutions were prepared so that a range of drug concentrations could be tested without changing the final concentration of ethanol (≦0.2%) present in the cell cultures.
Human promyelocytic leukemia (HL60) cells were grown in RPMI-1640 medium containing 10% fetal bovine serum. The cells were incubated at 37° C. in the presence of 5% CO2.
HL60 cells were plated at 1.2×10^5 cells/ml. Eighteen hours after plating, cells in duplicate were treated with drug. Four days later, the cells were harvested and a nitro blue tetrazolium reduction assay was performed (Collins et al., 1979; J. Exp. Med. 149:969-974). The percentage of differentiated cells was determined by counting a total of 200 cells and recording the number that contained intracellular black-blue formazan deposits. Verification of differentiation to monocytic cells was determined by measuring phagocytic activity (data not shown).

The subject of data set [6] is 24-hydroxylase (24Ohase) gene promoter in ROS 17/2.8 (bone) cells. Briefly: In vitro transcription assay (luciferase reporter). The settings on record: for transcriptional activity in bone cells, compared to 1α,25(OH)2D3: result in words. Type of data set: cell-based. As to the method: Transcription activity was measured in ROS 17/2.8 (bone) cells that were stably transfected with a 24-hydroxylase (24Ohase) gene promoter upstream of a luciferase reporter gene (Arbour et al., 1998). Cells were given a range of doses. Sixteen hours after dosing the cells were harvested and luciferase activities were measured using a luminometer. RLU=relative luciferase units.
For orientation: A reporter such as luciferase makes a cellular process visible.

Data set [7] relates to parathyroid hormone (PTH). Nature of the data set: PTH suppression (serum PTH). Type of data set: in vivo, rat. To be noted: result in words; normal/adult rats. How it is done: Adult, female Sprague-Dawley rats were obtained from Harlan (Madison, Wis.).
Upon receipt, the animals were identified by individual tail marks. Animals were housed in suspended, stainless steel, wire-bottom cages. Each cage contained one animal. The animal rooms were maintained at a temperature of 68 to 72° F. and a relative humidity of 25 to 75%. The holding rooms were set to provide 12 hours of light per day. Water and a purified rodent diet (Suda et al., Purified Rodent Diet-Diet 11) containing […] 0.3% phosphorus and fat soluble vitamins A, D, E and K were provided ad libitum.
Animals were randomly assigned to treatment groups (5 animals/group). All doses were administered intraperitoneally in 100 microliters of propylene glycol. Four to seven consecutive doses were given approximately 24 hours apart. Dosing was initiated after the animals had been allowed to acclimate for at least one week.
Both control and test articles were administered by intraperitoneal injection in 100 microliters for 4-7 consecutive days spaced approximately 24 hours apart. 1,25(OH)2D3 was given for 4 consecutive days, whereas, the test drugs were given for 7 consecutive days.
Twenty-four hours after the final dose, blood was collected from the tail artery and the concentration of bioactive serum PTH was measured using the rat BioActive Intact PTH ELISA Kit from Immutopics, Inc. (San Clemente, Calif.).

For the compound `C=C1[C@H](O)CC(=C/C=C2\CCC[C@]3(C)[C@@H](C(C)C)CC[C@@H]23)C[C@H]1O` [2-MP], in data set [1], the “binding to the vitamin D receptor, compared to 1α,25(OH)2D3” value (shortened to “binding … compared to 1α,25(OH)2D3”) is recorded as “as or nearly effective as calcitriol”. Further, the “intestinal calcium transport activity” value in data set [2] is on record as “little, if any, activity”. The “bone calcium mobilization activity” value in data set [3] is given as “little, if any, activity”. Further, in data set [4] (normal vitamin D sufficient rats, very high oral doses), the “increase in serum calcium” value is on record as “without producing an increase in serum calcium”. In the data set with 3T3-L1 cells, the “inhibition of differentiation of 3T3-L1 cells into mature adipocytes (Oil-Red-O staining)” value is “nearly as potent as the native hormone” and the “inhibition of differentiation of MDI-treated 3T3-L1 cells (oil-red-O staining)” value is “active”. Moreover, the “inhibition of differentiation of 3T3-L1 cells into mature adipocytes (Oil-Red-O staining)” value with 3T3-L1 cells (listed as 2MP) is recorded as “still active”. In the data set with SCD-1 mRNA, the “inhibition of SCD-1 mRNA induction” value is “nearly as potent as the native hormone” and the “inhibition of SCD1 mRNA induction” value was “active”. Further, in the data set on SCD-1 mRNA (listed as 2MP), the “inhibition of SCD-1 mRNA induction” value is “still active”.
`C=C1[C@H](O)CC(=C/C=C2\CCC[C@]3(C)[C@@H]([C@@H](C)CCC)CC[C@@H]23)C[C@H]1O` [2MtrisP]: the “binding … compared to 1α,25(OH)2D3” value in [1] was “almost equal to the native hormone; also recorded: as or nearly effective as calcitriol”. In [5] (result in words), the “differentiation of HL-60 cells, compared to 1α,25(OH)2D3” value is given as “equal in activity”. In [6], the “transcriptional activity in bone cells, compared to 1α,25(OH)2D3” value is listed as “within one order of magnitude”. Further, the “intestinal calcium transport activity” value in [2] is “some ability to elevate intestinal calcium transport; also recorded: less activity”. Also, the “bone calcium mobilization activity” value in [3] is given as “very little bone calcium mobilization activity”. In addition, the “bone calcium mobilizing activity” value in data set [3] (very high dose of 2340 pmol/day) was “little bone calcium mobilizing activity”. Moreover, the “suppression of parathyroid hormone (PTH)” value in [7] is reported as “remarkably effective”. For the same compound, the serum calcium concentrations result in data set [4] (adult rats, PTH suppression study) is on record as “not raising serum calcium concentrations”. In addition, the “inhibition of differentiation of 3T3-L1 cells into mature adipocytes (Oil-Red-O staining)” value is reported as “increased slightly” in the data set with 3T3-L1 cells and “still possess activity” in the data set on 3T3-L1 cells (listed as (20S)2M-trisP). Besides, the “inhibition of SCD-1 mRNA induction” value in the data set with SCD-1 mRNA is listed as “increased slightly”; in the data set with SCD-1 mRNA (listed as (20S)2M-trisP), “still possess activity”.
Turning to `C=C1[C@H](O)CC(=C/C=C2\CCC[C@]3(C)[C@@H](CCC)CC[C@@H]23)C[C@H]1O` [19,21-dinor, 2-methylene-19,21-dinor-1α-hydroxybishomopregnacalciferol], the “vitamin D receptor binding, times less active than 1α,25-dihydroxyvitamin D3” value in [1] (less active than 1α,25-dihydroxyvitamin D3) is given as “about 5 times”. Moreover, the “differentiation of HL-60 cells, times less active than 1α,25(OH)2D3” value in data set [5] is listed as “about 15 times”. The “transcriptional activity in bone cells, compared to 1α,25(OH)2D3” value in [6] is recorded as “active”. Moreover, the “intestinal calcium transport activity” value in data set [2] is listed as “no calcemic activity”. In addition, the “bone calcium mobilization activity” value in data set [3] was “no calcemic activity”. The “suppression of parathyroid hormone (PTH)” value in data set [7] was “significant activity”.
Regarding `C=C1[C@H](O)CC(=C/C=C2\CCC[C@]3(C)[C@@H]([C@H](C)CC)CC[C@@H]23)C[C@H]1O` [(20R)2MbisP], the “binding … compared to 1α,25(OH)2D3” value in [1] is on record as “approximately equally effective”. Further, in data set [5], the “differentiation of HL-60 cells, times less active than 1α,25(OH)2D3” value is recorded as “about 5 times”. The “transcription of reporter gene coupled to the CYP-24 promoter, times less active than 1α,25-(OH)2D3” value in [6] (less active than 1α,25-(OH)2D3) was “about 5 times”. The “intestinal calcium transport activity” value is on record as “does not support” in data set [2] and “less activity” in [2] (listed as (20R)2-MbisP). The “bone calcium mobilization activity” value in data set [3] is “does not support”; in [3] (listed as (20R)2-MbisP), “very little bone calcium mobilization activity”. The “suppression of parathyroid hormone (PTH)” value in [7] is “considerable activity”. For the same compound, the “hypercalcemia in adult rats” value in data set [4] (doses as high as 45 nmol/day) was “failed to cause hypercalcemia”. Besides, the “inhibition of differentiation of 3T3-L1 cells into mature adipocytes (Oil-Red-O staining)” value with 3T3-L1 cells is “nearly equipotent”. In addition, the “inhibition of differentiation of MDI-treated 3T3-L1 cells (oil-red-O staining)” value in the data set on 3T3-L1 cells is on record as “active”. The “inhibition of SCD1 mRNA induction” value with SCD-1 mRNA is reported as “active”.
